Here are results for five substances from patent publication US9187784B2, “EphA4 is a disease modifier in motor neuron disease” (VIB VZW, priority 2011, dated 2015).

Marks after values point to notes of the source that are not given here.

One data set concerns TDP43A315T embryos. As to the kind of experiment: mutant TDP-43-induced motor axonopathy in zebrafish embryos. In kind it is in vivo. Conditions: zebrafish embryos. Here is the method: FIG. 14: Inhibiting EphA4 signaling rescues motor axonopathies induced by overexpression of mutant TDP-43 and knockdown of Smn. Y-axes show motor axon length of zebrafish embryos (30 hpf) expressing TDP^WT (black bar) or TDP^A315T (white bar) (Panels A, B) or with unaltered (black bar) or reduced expression levels of Smn (white bar) (Panels C, D). Smn knockdown was established by injection of 3 ng (Panel C) or 6 ng (Panel D) atg-smn morpholino. Ctr-smn morpholino was injected as control. RTK1 signaling was inhibited by injection of 3 ng atg-RTK1 morpholino (shaded bars) (Panels A, C) or by treatment with C1 (500 μM, shaded bars) (Panels B, D). Injection of ctr-RTK1 morpholino and application of a 1/250 dilution of DMSO were used as control. ANOVA and Bonferroni's multiple comparison tests were used for statistical analysis: TDP^A315T/atg-RTK1 (n=24) vs. TDP^A315T/ctr-RTK1 (n=34, p=7.86×10^−5, Panel A), TDP^A315T/C1 (n=21) vs. TDP^A315T/DMSO (n=21, p=0.045, Panel B), atg-smn/atg-RTK1 (n=35) vs. atg-smn/ctr-RTK1 (n=35, p=4.93×10^−8, Panel C), atg-smn/C1 (n=91) vs. atg-smn/DMSO (n=105, p=1.27×10^−6, Panel D). Error bars are s.e.m.
Mann-Whitney test was used to determine significance between TDPA315T/ctr-RTK1 (4.5 ng) vs. TDPA315T/atg-RTK1 (4.5 ng, * p=0.001) and between TDPA315T/control vs. TDPA315T/C1 (° p=0.029). Control=1/250 DMSO and C1=500 μM.
(§1) A morpholino database of translation-blocking morpholinos (atg-mo) was used to perform a morpholino-based knockdown screening in a zebrafish model for ALS.^13 The standard control morpholino (5′-[…]-′3) (SEQ ID NO:4), provided by Gene tools, was used as control. Three nanograms of morpholino were co-injected with […] of SOD1 mRNA and the effect of gene knockdown on the mutant SOD1-induced axonopathy analyzed. Each morpholino was tested in two separate experiments. Only morphologically normal embryos were included for further analysis. Overexpression of SOD1 or TDP-43, applied to validate the protective morpholino, was established by injection of 1.76 ng SOD1 mRNA or 1.43 ng TDP-43 mRNA, respectively. Antisense morpholinos to knockdown zebrafish RTK1, RTK2, Smn and their five base pair-mismatch control morpholinos were developed by Gene tools: atg-RTK1 (5′-[…]-′3) (SEQ ID NO:5), atg-RTK2 (5′-[…]-[…]-′3) (SEQ ID NO:6), splice-RTK2 (5′-[…]-[…]-′3) (SEQ ID NO:7) and atg-smn (5′-[…]-3′) (SEQ ID NO:8). Compound 1 (2,5-dimethylpyrrolyl benzoic acid, Matrix Scientific) dissolved in DMSO was added to the water of 6-hpf-old zebrafish embryos.

The subject of data set [1] is mutant SOD1-overexpressing fish. As to the kind of experiment: mutant SOD1-induced motor axonopathy in zebrafish embryos (percentage affected embryos, motor axon length). The class given is in vivo. The following applies: for % affected embryos: Table 3, SOD1A4V embryos. The text has this:
FIG. 1: EphA4 knockdown rescues mutant SOD1-induced motor axonopathy. […] Abnormal branching is indicated with arrowhead. Y-axes show motor axon length of zebrafish embryos expressing wild-type SOD1 (black bar, Panels D-G) or mutant SOD1 (white bar, Panels D-G). Knockdown of RTK2 in SOD1A4V- (Panel D), SOD1G93A- (Panel E) and SOD1G37R- (Panel F) expressing fish was established by co-injection of increasing amounts of atg-RTK2 morpholino (shaded bars). RTK1 expression was inhibited in SOD1A4V-expressing fish by co-injection of atg-RTK1 morpholino (shaded bars, Panel G). Ctr-RTK2 and ctr-RTK1 were used as control. ANOVA and Bonferroni's multiple comparison tests were used for statistical analysis. Comparing axonal length in SOD1A4V fish injected with ctr-RTK2 (n=39) vs. different doses atg-RTK2: 3 ng (n=43, p=0.0059), 4.5 ng (n=37, p=0.0016, Panel D), SOD1G93A: ctr-RTK2 (n=60) vs. atg-RTK2: 1.5 ng (n=55, p=0.015), 3 ng (n=51, p=2.82×10-9), 4.5 ng (n=46, p=2.22×10-15, Panel E), SOD1G37R: ctr-RTK2 (n=37) vs. atg-RTK2: 3 ng (n=25, p=0.027), 4.5 ng (n=36, p=0.0018, Panel F) and SOD1A4V: ctr-RTK1 (n=49) vs. atg-RTK1: 1.5 ng (n=51, p=2.51×10-7), 3 ng (n=64, p=7.99×10-10), 4.5 ng (n=54, p<1×10-20, Panel G). Western blot of SOD1WT or SOD1A4V (1.76 ng) expressing zebrafish embryos (30 hpf), co-injected with either ctr-RTK1 or atg-RTK1 (4.5 ng). Sixty embryos were used per group with actin as the loading control (H). Immunostaining of rtk1 (green) in rhombomeres 3 and 5 and of ephrin-b2 (magenta) in rhombomere 4 in zebrafish embryos injected with either ctr-RTK1 or atg-RTK1 (4.5 ng). RTK1-depleted embryos show disorganized rhombomere boundaries (arrowhead, I, Scale bar 50 μm). Error bars are s.e.m.
FIG. 2: RTK2 knockdown protects motor axons against SOD1^A4V-induced injury. Effect of RTK2 knockdown, established by injection of splice-rtk2 morpholino, on the motor axon length of SOD1^A4V-expressing zebrafish embryos (30 hpf). SOD1^WT-expressing fish and a non-functional five-base pair-mismatch control morpholino (ctr-RTK2) were used as control (Panel A). ANOVA and Bonferroni's multiple comparison tests were used for statistical analysis: SOD1^A4V/ctr-RTK2 (n=56) vs. SOD1^A4V/spl-RTK2 (n=60, 1.79×10^−4). Spl-RTK2 was designed against the exon 2 splice site of the zebrafish RTK2 pre-mRNA and alternatively skipped out exon 2. RT-PCR on non-transgenic fish (lane 1), ctr-RTK2-injected fish (lane 2) and spl-RTK2-injected fish (lane 3) at 30 hpf. Functional RTK2 mRNA, containing exon 2, is indicated by the 818-bp product (upper band) while non-functional RTK2 mRNA, lacking exon 2 is indicated by the 156-bp product (lower band), 60 embryos each group (Panel B). Error bars are s.e.m.
(§2) FIG. 12: Pharmacological inhibition of EphA4 receptor signaling protects against mutant SOD1 pathology in vivo. Effect of treatment with Compound 1 (C1, 500 μM) on the motor axon length of zebrafish embryos (30 hpf). DMSO (1/250 dilution) was used as control (Panel A). ANOVA and Bonferroni's multiple comparison tests were used for statistical analysis: SOD1^A4V/C1 (n=68) vs. SOD1^A4V/DMSO (n=76, p=3.54×10^−5). Effect of KYL-peptide (3 mM) treatment of 60-day-old SOD1^G93A rats on disease onset (Panel B) and survival (Panel C). Artificial CSF (ACSF) was used as control. Average disease onset: 133 days (treated, n=21) versus 125 days (control, n=17, T-test p=0.044). Average survival: 148 days (treated, n=21) versus 139 days (controls, n=17, T-test p=0.041). Error bars are s.e.m.
Effect of RTK2 knockdown (established by injection of atg-RTK2 morpholino) on the percentage of affected wild-type SOD1 or mutant SOD1 (A4V, G93A, G37R) zebrafish embryos (30 hpf). Ctr-RTK2 morpholino was used as control. An embryo was considered as affected when it had more than 10% abnormally branched motor axons. Significance of mtSOD1/ctr-RTK2 (4.5 ng) vs. mtSOD1/atg-RTK2 (4.5 ng) was determined by Mann-Whitney test, * p=0.0075, ° p=0.039 and # p=0.0052. […]

The next data set relates to zebrafish embryos. As to the kind of experiment: morpholino-based smn knockdown: abnormally branched and truncated motor axons in zebrafish embryos. The class given is in vivo. Conditions: for truncation affected (%): affected = more than 5% truncated motor axons; for branching affected (%): affected = more than 10% abnormally branched motor axons. Here is the method: FIG. 15: Smn knockdown reduces the motor axon length in zebrafish embryos. […] The non-functional five-base pair-mismatch control morpholino (ctr-smn) was used as control. ANOVA and Bonferroni's multiple comparison tests were used for statistical analysis: ctr-smn (6 ng, n=42) vs. 3 ng atg-smn (n=28, p=8.99×10^−3), 4.5 ng atg-smn (n=30, 3.37×10^−7), 6 ng atg-smn (n=41, p<1×10-20). Error bars are s.e.m.
Effect of smn knockdown, induced by injection of increasing amounts of atg-smn morpholino, on the percentage affected embryos. An embryo was considered as affected when it had more than 10% abnormally branched or more than 5% truncated motor axons. Significance of ctr-smn (6 ng) vs. atg-smn (6 ng) was determined by Mann-Whitney test, *p=3×10-4, ° p=1.3×10-4.
as §1

The next data set deals with EphA4 (Homo sapiens, UniProt P54764). The following applies: WO2004/028551; cited from earlier work.
Another data set relates to SOD1G93A rat. In words: KYL peptide intracerebroventricular treatment of SOD1G93A rats (disease onset, survival). In kind it is in vivo. The method, then:
as §2
EphA4−/− mice were mated with SOD1G93A mice for at least six generations. All experiments were littermate and gender controlled. […] The EphA4 blocking peptide ([…] (SEQ ID NO:1)-95% purity; Eurogentec) was a 3 mM solution in artificial cerebrospinal fluid and infused into the left lateral ventricle of 60-day-old female rats, using mini-osmotic pumps (28 days, 0.25 μl/h, Model 2004, Alzet) as previously described.^46 Disease onset, progression and survival of SOD1G93A rats were analyzed by weight and rotarod performance (five times for three minutes at 15 rpm) three times a week. […]

Chain of EphA4 (P54764 20-986, species assumed): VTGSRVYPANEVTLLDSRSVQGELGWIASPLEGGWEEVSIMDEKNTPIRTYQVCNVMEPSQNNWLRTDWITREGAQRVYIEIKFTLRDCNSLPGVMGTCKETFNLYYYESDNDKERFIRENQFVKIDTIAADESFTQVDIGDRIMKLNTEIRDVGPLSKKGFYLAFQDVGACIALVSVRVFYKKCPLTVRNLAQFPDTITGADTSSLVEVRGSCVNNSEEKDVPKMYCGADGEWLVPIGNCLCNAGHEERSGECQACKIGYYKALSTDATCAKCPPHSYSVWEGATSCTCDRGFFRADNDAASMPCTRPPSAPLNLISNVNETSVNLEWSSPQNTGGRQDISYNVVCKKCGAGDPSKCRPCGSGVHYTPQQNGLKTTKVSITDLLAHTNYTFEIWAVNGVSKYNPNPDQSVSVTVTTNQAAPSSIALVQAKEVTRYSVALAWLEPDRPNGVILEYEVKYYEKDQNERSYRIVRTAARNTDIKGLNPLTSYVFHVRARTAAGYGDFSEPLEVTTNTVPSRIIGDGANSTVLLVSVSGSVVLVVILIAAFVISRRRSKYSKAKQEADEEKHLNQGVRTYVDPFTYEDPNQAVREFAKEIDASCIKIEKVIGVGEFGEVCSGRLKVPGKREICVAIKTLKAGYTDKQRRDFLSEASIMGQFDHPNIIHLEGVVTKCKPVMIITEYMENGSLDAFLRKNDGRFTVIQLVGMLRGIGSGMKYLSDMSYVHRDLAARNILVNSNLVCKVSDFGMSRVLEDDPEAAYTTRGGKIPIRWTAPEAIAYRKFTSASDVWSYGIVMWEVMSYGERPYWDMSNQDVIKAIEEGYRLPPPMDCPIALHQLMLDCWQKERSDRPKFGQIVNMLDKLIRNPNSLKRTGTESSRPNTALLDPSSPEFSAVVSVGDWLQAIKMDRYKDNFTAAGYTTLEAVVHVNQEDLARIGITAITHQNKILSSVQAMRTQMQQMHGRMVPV

Consider “2,5-dimethylpyrrolyl benzoic acid [Compound C1]”, for which the “effect on outgrowth deficit and aberrant branching induced by mutant TDP-43” value in the data set on TDP43A315T embryos was “rescued the outgrowth deficit and aberrant branching induced by mutant TDP-43”.

For “5′-CCTCCCACTGA-AAATGGACAGAGGA-′3 (antisense CCTCCCACTGAAAATGGACAGAGGA; all phosphorodiamidate morpholino (PMO)) [spl-RTK2]”, in data set [1] (SOD1A4V zebrafish embryos, 30 hpf), the “effect on mutant SOD1-induced axonopathy” value is listed as “replicating the protective effect of RTK2 knockdown”. In addition, the “% affected embryos” value in data set [1] (morpholino 0.4 ng) was 40 (30) %; in data set [1] (morpholino 0.8 ng), 19 (31) %; in data set [1] (morpholino 1.5 ng), 13* (31) %.

In the case of “5′-CGACATCTTCTGCACCATTGGC-3′ (all phosphorodiamidate morpholino (PMO)) [atg-smn]”, the “truncation affected (%)” value in the data set on zebrafish embryos (morpholino 3 ng) amounted to 7%; in the data set on zebrafish embryos (morpholino 4.5 ng) it was 11%; in the data set on zebrafish embryos (morpholino 6 ng) it was 42° %. For the same substance, the results for the “branching affected (%)” value with zebrafish embryos (morpholino 3 ng), with zebrafish embryos (morpholino 4.5 ng) and with zebrafish embryos (morpholino 6 ng) were 39%, 46% and 71* %, respectively.

Regarding “KYLPYWPVLSSL (EphA4 inhibitory peptide) [KYL peptide]”, in the data set with EphA4, the “binding to EphA4” value is “preferentially bind to EphA4”. Also, the Average survival with SOD1G93A rat (KYL-peptide 3 mM intracerebroventricular from day 60, controls 139 days) is 148 days. In the data set with SOD1G93A rat (KYL-peptide 3 mM intracerebroventricular from day 60, onset by rotarod, control 125 days), this substance returned an Average disease onset of 133 days.

Turning to “VTMEAINLAFPG (EphA4 inhibitory peptide) [VTM peptide]”, the “binding to EphA4” value in the data set with EphA4 is “preferentially bind to EphA4”.
